ChEMBL document CHEMBL2150927, “5-Amino-oxazepine and 5-Amino-thiazepine Compounds as β-Secretase Antagonists and Methods of Use: Patent Highlight” (ACS Med Chem Lett, 2012)

Experiments:
Beta-secretase 1 [1] = molecular target: T1, Beta-secretase 1 (Homo sapiens, UniProt P56817); experiment: Inhibition of BACE1 expressed in HEK cells by cell-based assay; parameters: species or system HEK293
Beta-secretase 1 [2] = molecular target: T1, Beta-secretase 1; experiment: Inhibition of BACE1 by FRET assay

T1 sequence (P56817 whole entry): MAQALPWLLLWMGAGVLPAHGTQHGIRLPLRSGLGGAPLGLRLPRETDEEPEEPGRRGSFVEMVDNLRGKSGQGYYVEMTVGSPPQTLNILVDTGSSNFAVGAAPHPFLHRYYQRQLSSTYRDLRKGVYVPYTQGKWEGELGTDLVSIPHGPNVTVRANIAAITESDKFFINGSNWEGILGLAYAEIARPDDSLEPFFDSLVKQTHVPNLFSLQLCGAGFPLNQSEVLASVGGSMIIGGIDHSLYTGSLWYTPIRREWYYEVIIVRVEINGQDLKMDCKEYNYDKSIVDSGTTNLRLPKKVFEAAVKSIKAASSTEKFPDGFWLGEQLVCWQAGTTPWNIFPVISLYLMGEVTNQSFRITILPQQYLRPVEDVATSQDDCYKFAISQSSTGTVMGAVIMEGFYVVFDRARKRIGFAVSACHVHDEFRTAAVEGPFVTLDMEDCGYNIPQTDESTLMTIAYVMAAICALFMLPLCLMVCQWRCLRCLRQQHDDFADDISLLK

IC50 (Beta-secretase 1 [1]) [nM] | IC50 (Beta-secretase 1 [2]) [nM] | SMILES
7 | – | CC(C)(C)COc1cc(F)c2c(c1)[C@]1(COCCC(N)=N1)c1cc(-c3cccnc3F)ccc1O2
4 | 3 | NC1=N[C@@]2(CCOC1)c1cc(-c3cccnc3F)ccc1Oc1cnc(C3CCC(F)(F)C3)cc12 (stereo partly specified)
19 | 2 | NC1=N[C@@]2(CCOC1)c1cc(-c3cccnc3F)ccc1Oc1cnc(-c3ccc(F)c(F)c3)cc12

SMILES | IC50 (Beta-secretase 1 [1]) [nM] | IC50 (Beta-secretase 1 [2]) [nM]
NC1=N[C@@]2(COCC1)c1cc(-c3cccnc3F)ccc1Oc1cnc(-c3ccnc(F)c3)cc12 | 1 | –
